Results from patent publication EP3650046A1, “MESENCHYMAL STEM CELL BASED TARGETED ACTIVE INGREDIENT DELIVERY SYSTEM” (Cellis AG, priority 2018, dated 2020).

How the values were obtained:
[1] = test system: Human umbilical Mesenchymal Stem Cells (MSC); assay: Loading of UC-MSC in suspension with fluorescently labelled iron-binding protein complexes, flow cytometry; type: cell-based; conditions: MSC at passage five loaded with 0.6 mg/ml
Description: Umbilical Cord Mesenchymal Stem cells (UC-MSC) were cultured in DMEM 1000, 1:100 penicillin/streptomycin, 20% FBS, 8 ng/ml bFGF. Media was changed every 2 days. Experiments were carried out on UC-MSCs at passage 5.
Ferritin and haemoglobin complexes were produced as described in WO 2016/207257 (see in particular Examples 5 and 6).
Human UC-MSCs were loaded in suspension with fluorescently labelled haemoglobin-Alexa488, ferritn-Alexa488 or ferritin loaded with anticancer drug doxorubicin (ferritin-doxorubicin) as follows: UC-MSCs were detached from culture dish with 0,25% Trypsin-EDTA then cells were mixed with 0,6 mg/ml of haemoglobin-Alexa488, ferritn-Alexa488 and ferritn-doxorubicin in PBS to final cell density 10^6 per ml. Next cells were incubated for 1 hour at 37 °C, 5% CO2 and washed once in PBS afterwards. Cells were immediately used to set up co-culture with cancer cells.

[2] = test system: human cancer cell lines HeLa, SCOV3 or MDA-MB-231; assay: Delivery of the complex from loaded MSCs to cancer cells in co-culture, flow cytometry; type: cell-based; conditions: loaded MSCs co-cultured for 24 hours with cancer cells in ratio 2:1, example of results
Description: Cancer cell lines HeLa, SKOV3 and MDA-MB-231 were cultures in RPMI, 10%FBS, 1:100 penicillin/streptomycin, 1:100 L-glutamine. Media was changed every 2 days.
For co-culture with MSCs, cancer cells were detached from culture dish using 0,25% Trypsin-EDTA and resuspended in full RPMI media. UC-MSC cells were prepared as described in Example 1 and then mixed 2:1 (200 000:100 000) with cancer cell line and plated on 24-well plate. Co-culture media was a mixture 1:1 of media for MSC and cancer cells.
The results were analysed by flow cytometry. Before setting up the co-culture in every experiment cancer cells were stained with Cell Trace Violet (Thermo Fisher Scientific) in the 1:100 dilution. In experiments with fluorescent cargo (haemoglon-Alexa488 and ferritin-A488) UC-MSC and cancer cells were differentiated by Cell Trace Violet signal. In experiments with ferritin-doxorubicin all cells in co-culture were additionally stained with Draq7 (BioLegend) in order to track viability. Cells were differentiated by Cell Trace Violet.

Haemoglobin-Alexa488: fluorescently labelled haemoglobin-Alexa488, produced as described in WO 2016/207257
efficacy of loading of MSC [1]: ≥ 97%
mean fluorescence intensity in loaded MSC cells versus control group ([1]; fold higher than control group): 4 times
cancer cells positive for Haemoglobin-Alexa488 ([2]; Fig. 2C): Approximately 96%
cancer cells positive for Haemoglobin-Alexa488 ([2]; Fig. 3C (Ft- / Ft+ panels)): Approximately 92%
